{"source": "ChEMBL document CHEMBL6120947", "about": "“Synthesis and Antiosteoporotic Characterization of Diselenyl Maleimides: Discovery of a Potent Agent for the Treatment of Osteoporosis by Targeting RANKL” (J Med Chem, 2024)", "key": {"[1]": {"assay": "Toxicity in OVX-induced osteoporosis C57BL/6 mouse model assessed as animal fatality at 10 mg/kg, po administered every other day for 8 weeks", "format": "organism-based", "settings": "in vivo, 1344 h"}, "[2]": {"assay": "Toxicity in OVX-induced osteoporosis C57BL/6 mouse model assessed as pathological change in liver at 10 mg/kg, po administered every other day for 8 weeks by H and E staining based analysis", "format": "organism-based", "settings": "in vivo, 1344 h"}, "BMDM [3]": {"system": "BMDM", "assay": "Inhibition of osteoclastogenesis in M-CSF/RANKL-induced osteoclast differentiation in C57BL/6J mouse BMDM cells assessed as reduction in cathepsin K level measured after 5 days by Western blot analysis", "format": "functional, cell-based", "settings": "dose <= 2.0 µM, time 5.0 day"}, "BMDM [4]": {"system": "BMDM", "assay": "Inhibition of osteoclastogenesis in M-CSF/RANKL-induced osteoclast differentiation in C57BL/6J mouse BMDM cells assessed as reduction in NFATc1 mRNA level measured after 5 days by qRT-PCR analysis", "format": "functional, cell-based", "settings": "dose <= 2.0 µM, time 5.0 day"}, "RAW264.7 [5]": {"system": "RAW264.7", "assay": "Inhibition of osteoclastogenesis in RANKL-induced osteoclast differentiation in mouse RAW264.7 cells incubated for 4 days by TRAP staining based analysis", "format": "functional, cell-based", "settings": "time 4.0 day"}, "[6]": {"assay": "Toxicity in OVX-induced osteoporosis C57BL/6 mouse model assessed as adverse event at 10 mg/kg, po administered every other day for 8 weeks", "format": "organism-based", "settings": "in vivo, 1344 h"}, "Mus musculus [7]": {"system": "Mus musculus", "assay": "Anti-osteoporosis effect in OVX-induced osteoporosis C57BL/6 mouse model assessed as improvement of bone surface in femur at 10 mg/kg, po administered every other day for 8 weeks by H and E staining based analysis", "format": "functional, organism-based"}, "MC3T3-E1 [8]": {"system": "MC3T3-E1", "assay": "Effect on osteoblast differentiation in mouse MC3T3-E1 cells assessed as change in ALP level at 0.5 to 2 uM incubated for 7 days by Western blot analysis", "format": "functional, cell-based", "settings": "dose 0.5-2 µM, time 7.0 day"}, "Mus musculus [9]": {"system": "Mus musculus", "assay": "Anti-osteoporosis effect in OVX-induced osteoporosis C57BL/6 mouse model assessed as increase in BV/TV value at 10 mg/kg, po administered every other day for 8 weeks by micro-CT analysis", "format": "functional, organism-based"}, "BMDM [10]": {"system": "BMDM", "assay": "Inhibition of osteoclastogenesis in M-CSF/RANKL-induced osteoclast differentiation in C57BL/6J mouse BMDM cells assessed as suppression of osteoclast nuclei number measured after 7 days by F-actin ring-TRITC phalloidin staining based analysis", "format": "functional, cell-based", "settings": "dose <= 2.0 µM, time 7.0 day"}, "BMDM [11]": {"system": "BMDM", "assay": "Inhibition of osteoclastogenesis in M-CSF/RANKL-induced osteoclast differentiation in C57BL/6J mouse BMDM cells assessed as reduction in TRAP mRNA level measured after 5 days by qRT-PCR analysis", "format": "functional, cell-based", "settings": "dose <= 2.0 µM, time 5.0 day"}, "BMDM [12]": {"system": "BMDM", "assay": "Inhibition of osteoclastogenesis in M-CSF/RANKL-induced osteoclast differentiation in C57BL/6J mouse BMDM cells assessed as reduction in DC-STAMP mRNA level measured after 5 days by qRT-PCR analysis", "format": "functional, cell-based", "settings": "dose <= 2.0 µM, time 5.0 day"}, "[13]": {"assay": "Toxicity in OVX-induced osteoporosis C57BL/6 mouse model assessed as pathological change in kidney at 10 mg/kg, po administered every other day for 8 weeks by H and E staining based analysis", "format": "organism-based", "settings": "in vivo, 1344 h"}, "MC3T3-E1 [14]": {"system": "MC3T3-E1", "assay": "Effect on osteoblast differentiation in mouse MC3T3-E1 cells assessed as change in ALP level at 0.5 to 2 uM incubated for 7 days by inverted microscopy", "format": "functional, cell-based", "settings": "dose 0.5-2 µM, time 7.0 day"}, "BMDM [15]": {"system": "BMDM", "assay": "Effect in p38 level in M-CSF/RANKL-induced osteoclast differentiation in C57BL/6J mouse BMDM cells at 1 uM measured upto 60 mins by Western blot analysis", "format": "functional, cell-based"}, "BMDM [16]": {"system": "BMDM", "assay": "Inhibition of osteoclastogenesis in M-CSF/RANKL-induced osteoclast differentiation in C57BL/6J mouse BMDM cells assessed as reduction in MMP-9 mRNA level measured after 5 days by qRT-PCR analysis", "format": "functional, cell-based", "settings": "dose <= 2.0 µM, time 5.0 day"}, "MC3T3-E1 [17]": {"system": "MC3T3-E1", "assay": "Effect on osteoblast differentiation in mouse MC3T3-E1 cells assessed as change in Runx2 mRNA level at 0.5 to 2 uM incubated for 7 days by qRT-PCR analysis", "format": "functional, cell-based", "settings": "dose 0.5-2 µM, time 7.0 day"}, "BMDM [18]": {"system": "BMDM", "assay": "Inhibition of osteoclastogenesis in M-CSF/RANKL-induced osteoclast differentiation in C57BL/6J mouse BMDM cells assessed as reduction in MMP-9 level measured after 5 days by Western blot analysis", "format": "functional, cell-based", "settings": "dose <= 2.0 µM, time 5.0 day"}, "BMDM [19]": {"system": "BMDM", "assay": "Inhibition of osteoclastogenesis in M-CSF/RANKL-induced osteoclast differentiation in C57BL/6J mouse BMDM cells assessed as reduction in c-Fos mRNA level measured after 5 days by qRT-PCR analysis", "format": "functional, cell-based", "settings": "dose <= 2.0 µM, time 5.0 day"}, "BMDM [20]": {"system": "BMDM", "assay": "Inhibition of osteoclastogenesis in M-CSF/RANKL-induced osteoclast differentiation in C57BL/6J mouse BMDM cells assessed as reduction in JNK phosphorylation at 1 uM measured upto 60 mins by Western blot analysis", "format": "functional, cell-based"}, "[21]": {"assay": "Toxicity in OVX-induced osteoporosis C57BL/6 mouse model assessed as pathological change in spleen at 10 mg/kg, po administered every other day for 8 weeks by H and E staining based analysis", "format": "organism-based", "settings": "in vivo, 1344 h"}, "Mus musculus [22]": {"system": "Mus musculus", "assay": "Anti-osteoporosis effect in OVX-induced osteoporosis C57BL/6 mouse model assessed as increase in number of osteoclasts to bone surface area ratio at 10 mg/kg, po administered every other day for 8 weeks by TRAP staining based analysis", "format": "functional, organism-based"}, "MC3T3-E1 [23]": {"system": "MC3T3-E1", "assay": "Effect on osteoblast differentiation in mouse MC3T3-E1 cells assessed as change in collagen I level at 0.5 to 2 uM incubated for 7 days by Western blot analysis", "format": "functional, cell-based", "settings": "dose 0.5-2 µM, time 7.0 day"}, "Mus musculus [24]": {"system": "Mus musculus", "assay": "Anti-osteoporosis effect in OVX-induced osteoporosis C57BL/6 mouse model assessed as increase in Tb.N value at 10 mg/kg, po administered every other day for 8 weeks by micro-CT analysis", "format": "functional, organism-based"}, "Mus musculus [25]": {"system": "Mus musculus", "assay": "Anti-osteoporosis effect in OVX-induced osteoporosis C57BL/6 mouse model assessed as reduction in bone mass loss in distal femur at 10 mg/kg, po administered every other day for 8 weeks by micro-CT analysis", "format": "functional, organism-based"}, "BMDM [26]": {"system": "BMDM", "assay": "Inhibition of osteoclastogenesis in M-CSF/RANKL-induced osteoclast differentiation in C57BL/6J mouse BMDM cells assessed as decrease in c-Fos level at 1 uM measured for 5 days by Western blot analysis", "format": "functional, cell-based", "settings": "time 5.0 day"}, "MC3T3-E1 [27]": {"system": "MC3T3-E1", "assay": "Effect on osteoblast differentiation in mouse MC3T3-E1 cells assessed as change in BMP2 mRNA level at 0.5 to 2 uM incubated for 7 days by qRT-PCR analysis", "format": "functional, cell-based", "settings": "dose 0.5-2 µM, time 7.0 day"}, "BMDM [28]": {"system": "BMDM", "assay": "Inhibition of osteoclastogenesis in M-CSF/RANKL-induced osteoclast differentiation in C57BL/6J mouse BMDM cells assessed as suppression of osteoclast size measured after 7 days by F-actin ring-TRITC phalloidin staining based analysis", "format": "functional, cell-based", "settings": "dose <= 2.0 µM, time 7.0 day"}, "RAW264.7 [29]": {"system": "RAW264.7", "assay": "Cytotoxicity against mouse RAW264.7 cells assessed as decrease in cell viability at 1 uM incubated for 48 hrs by MTT assay", "format": "toxicity, cell-based", "settings": "raw264.7, 48 h"}, "BMDM [30]": {"system": "BMDM", "assay": "Inhibition of osteoclastogenesis in M-CSF/RANKL-induced osteoclast differentiation in C57BL/6J mouse BMDM cells assessed as reduction in cathepsin K mRNA level measured after 5 days by qRT-PCR analysis", "format": "functional, cell-based", "settings": "dose <= 2.0 µM, time 5.0 day"}, "[31]": {"assay": "Toxicity in OVX-induced osteoporosis C57BL/6 mouse model assessed as pathological change in heart at 10 mg/kg, po administered every other day for 8 weeks by H and E staining based analysis", "format": "organism-based", "settings": "in vivo, 1344 h"}, "Mus musculus [32]": {"system": "Mus musculus", "assay": "Anti-osteoporosis effect in OVX-induced osteoporosis C57BL/6 mouse model assessed as decrease in Tb.Sp value at 10 mg/kg, po administered every other day for 8 weeks by micro-CT analysis", "format": "functional, organism-based"}}, "note": "The source made the active and inactive calls. The calls are words filed in the database; no cut-off is given here."}
{"smiles": "O=C1C([Se]c2ccccc2)=C([Se]c2ccccc2)C(=O)N1Cc1ccccc1", "values": [{"measurement": "Activity", "setting": "[1]", "result": "Non-toxic"}, {"measurement": "Activity", "setting": "[2]", "result": "Non-toxic"}, {"measurement": "inhibition", "setting": "BMDM [3]", "result": "Dose-dependent-effect"}, {"measurement": "inhibition", "setting": "BMDM [4]", "result": "Dose-dependent-effect"}, {"measurement": "inhibition", "setting": "RAW264.7 [5]", "result": "Active"}, {"measurement": "Activity", "setting": "[6]", "result": "Non-toxic"}, {"measurement": "Activity", "setting": "Mus musculus [7]", "result": "Active; Displayed Similar Effect With That Exhibited By Alendronate"}, {"measurement": "Activity", "setting": "MC3T3-E1 [8]", "result": "No effect"}, {"measurement": "Activity", "setting": "Mus musculus [9]", "result": "Active; Displayed Similar Effect With That Exhibited By Alendronate"}, {"measurement": "inhibition", "setting": "BMDM [10]", "result": "Dose-dependent-effect"}, {"measurement": "inhibition", "setting": "BMDM [11]", "result": "Dose-dependent-effect"}, {"measurement": "inhibition", "setting": "BMDM [12]", "result": "Dose-dependent-effect"}, {"measurement": "Activity", "setting": "[13]", "result": "Non-toxic"}, {"measurement": "Activity", "setting": "MC3T3-E1 [14]", "result": "No effect"}, {"measurement": "Activity", "setting": "BMDM [15]", "result": "No effect"}, {"measurement": "inhibition", "setting": "BMDM [16]", "result": "Dose-dependent-effect"}, {"measurement": "Activity", "setting": "MC3T3-E1 [17]", "result": "No effect"}, {"measurement": "inhibition", "setting": "BMDM [18]", "result": "Dose-dependent-effect"}, {"measurement": "inhibition", "setting": "BMDM [19]", "result": "Dose-dependent-effect"}, {"measurement": "inhibition", "setting": "BMDM [20]", "result": "Active"}, {"measurement": "Activity", "setting": "[21]", "result": "Non-toxic"}, {"measurement": "Activity", "setting": "Mus musculus [22]", "result": "Active; Displayed Similar Effect With That Exhibited By Alendronate"}, {"measurement": "Activity", "setting": "MC3T3-E1 [23]", "result": "No effect"}, {"measurement": "Activity", "setting": "Mus musculus [24]", "result": "Active; Displayed Similar Effect With That Exhibited By Alendronate"}, {"measurement": "Activity", "setting": "Mus musculus [25]", "result": "Active; Displayed Similar Effect With That Exhibited By Alendronate"}, {"measurement": "inhibition", "setting": "BMDM [26]", "result": "Active"}, {"measurement": "Activity", "setting": "MC3T3-E1 [27]", "result": "No effect"}, {"measurement": "inhibition", "setting": "BMDM [28]", "result": "Dose-dependent-effect"}, {"measurement": "Activity", "setting": "RAW264.7 [29]", "result": "Non-toxic"}, {"measurement": "inhibition", "setting": "BMDM [30]", "result": "Dose-dependent-effect"}, {"measurement": "Activity", "setting": "[31]", "result": "Non-toxic"}, {"measurement": "Activity", "setting": "Mus musculus [32]", "result": "Active; Displayed Similar Effect With That Exhibited By Alendronate"}]}
